We go through five compounds from doi:10.1101/2023.02.27.530254, “Large library docking for cannabinoid-1 receptor agonists with reduced side effects” (bioRxiv, 2024).

Where two headings read alike, the source gives them in different places. Where only a bound is given, the exact number is not on record here.

Data set [1] has as its target T1, hCB1 (Homo sapiens, UniProt P21554). Briefly: Lance Ultra cAMP accumulation assay (inhibition of forskolin-stimulated cAMP), CHO cells. The data set is classed as cell-based. Also noted: expressed in transfected cells. Conditions: hCB1-expressing cells. As to the method:
The inhibition of forskolin-stimulated cAMP accumulation assays was carried out using PerkinElmer’s Lance Ultra cAMP kit following the manufacturer’s protocol. In brief, CHO cells stably expressing human CB1R were harvested by incubation with Versene (ThermoFisher Scientific, Waltham, MA) for 10 min, washed once with Hank’s Balanced Salt Solution, and resuspended in stimulation buffer at ~200 cells/μL density. The ligands at eight different concentrations (0.001–10,000 nM) in stimulation buffer (5 μL) containing forskolin (2 μM final concentration) were added to a 384-well plate followed by the cell suspension (5 μL; ~1000 cells/well). The plate was incubated for 30 min at room temperature. Eu-cAMP tracer (5 μL) and Ulight-anti-cAMP (5 μL) working solutions were then added to each well, and the plate was incubated at room temperature for an additional 60 min. Results were measured on a Perkin-Elmer EnVision plate reader. The EC50 values were determined by nonlinear regression analysis using Prism software (GraphPad Software, Inc., San Diego, CA) and are expressed as the mean of three experiments, each performed in triplicate.

Another data set has as its target T2, CB1 (Rattus norvegicus, UniProt P20272).
T2 construct: membrane preparations from rat brain (source of CB1); tissue Bioivt RAT00BRAINMZN; host or cells: rat brain
The experiment in a line: Radioligand competition binding with [3H]-CP-55,940, rat brain membranes. The following applies: for Ki: rCB1 binding Ki [95% CI], [3H]-CP-55,940 competition, rat brain membranes. As to the method: The results were analyzed using nonlinear regression to determine the IC50 and Ki values for each ligand (Prism by GraphPad Software, Inc., San Diego, CA). The Ki values are expressed as the mean of two to three experiments each performed in triplicate.

Data set [2] concerns the target T1, hCB1. The experiment in a line: bioSens-All ebBRET effector biosensor signaling profiling, HEK293. Type of data set: cell-based. Also noted: host or cells: HEK293 (HEK293SL clone), transient. As to the method:
(§1) ebBRET-based effector membrane translocation biosensor assays were conducted at Domain Therapeutics NA Inc. (Montreal, QC, Canada) as previously described. […] HEK293 cells were maintained in Dulbecco’s Modified Eagle Medium (DMEM) (Wisent) supplemented with 1% penicillin- streptomycin (Wisent) and 10% (or 2 % for transfection) fetal bovine serum (Wisent) at 37°C with 5% CO2. All biosensor-coding plasmids and related information are the property of Domain Therapeutics NA Inc. The total amount of transfected DNA was adjusted and kept constant at 1 μg per mL of cell culture to be transfected using salmon sperm DNA (Invitrogen) as ‘carrier’ DNA, PEI (polyethylenimine 25 kDa linear, PolyScience) and DNA (3:1 ml PEI:mg DNA ratio) were first diluted separately in 150 mM NaCl then mixed and incubated for at least 20 minutes at room temperature to allow for the formation of DNA/PEI complexes. During the incubation, HEK293 cells were detached, counted, and re-suspended in maintenance medium to a 350,000 cells per mL density. At the end of the incubation period, the DNA/PEI mixture was added to the cells. Cells were finally distributed in 96-well plates (White Opaque 96-well /Microplates, Greiner) at a density of 35,000 cells per well. Forty-eight hours post-transfection, medium was aspirated and replaced with 100 μl of Hank’s Balanced Salt Solution buffer (HBSS) (Wisent) per well using 450-Select TS Biotek plate washer. After 60 min incubation in this medium, 10 μL of 10 μM e-Coelenterazine Prolume Purple (Methoxy e-CTZ) (Nanolight) was added to each well for a final concentration of 1 μM immediately followed by addition of increasing concentrations of the test compounds to each well using the HP D300 digital dispenser (Tecan). All compounds were assayed at 22 concentrations with each biosensor after a 10-minute room temperature incubation period. […] All BRET ratios were standardized using the universal BRET (uBRET) equation: uBRET=BRETratio-A/B-A×10,000 where A is the BRET ratio obtained from transfection of negative control and B is the BRET ratio obtained from transfection of positive control. […] The data were analyzed using the four-parameter logistic non-linear regression model in GraphPad Prism 9.1 and data were presented as means ± CIs of 1–4 independent experiments.
(§2) The SEM was calculated for the logEmax/EC50 ratios using the following equation: SEM=σ/n where σ is the standard deviation, and n is the number of experiments.

The next data set relates to C56BL/6 mice. The experiment in a line: Catalepsy test (vertical wire mesh). Conditions: non-cannabinoid positive control. The data set is classed as in vivo, mouse. As to the method:
Thirty and 60 minutes after an i.p. injection of the compounds, mice were placed on a vertical wire mesh and the latency to move all four paws was recorded.

The target of data set [3] is T3, hCB2 (Homo sapiens, UniProt P34972). Briefly: bioSens-All ebBRET effector biosensor signaling profiling, HEK293. On the set-up: host or cells: HEK293 (HEK293SL clone), transient. The data set is classed as cell-based. As to the method: as §1, §2
Data set [4] addresses T1, hCB1. Briefly: Tango β-arrestin-2 recruitment assay, HTLA cells. The data set is classed as cell-based. On the set-up: expressed in transfected cells. As to the method: (§3) The Tango β-arrestin-2 recruitment assays were performed as described. In brief, HTLA cells were transiently transfected with human CB1R or CB2R Tango DNA construct overnight in DMEM supplemented with 10 % FBS, 100 μg ml−1 streptomycin and 100 U ml−1 penicillin. The transfected cells were then plated into poly-L-lysine-coated 384-well white clear-bottom cell culture plates in DMEM containing 1% dialysed FBS at a density of 10,000–15,000 cells per well. After incubation for 6 h, the plates were added with drug solutions prepared in DMEM containing 1% dialysed FBS for overnight incubation. On the day of assay, medium and drug solutions were removed and 20 μl per well of BrightGlo reagent (Promega) was added. The plates were further incubated for 20 min at room temperature and counted using the Wallac TriLux Microbeta counter (PerkinElmer). The results were analysed using GraphPad Prism 9.1. Each experiment was performed in triplicate and functional […] values were determined from the mean of three independent experiments.

Data set [5] addresses T3, hCB2. The experiment in a line: Tango β-arrestin-2 recruitment assay, HTLA cells. The data set is classed as cell-based. Also noted: expressed in transfected cells; host or cells: HTLA (transient). As to the method:
as §3

The mark [6] stands for this setting: HEK293, read-out: hCB1 Gi1 Emax [95% CI].
Setting [7] is: HEK293, read-out: hCB1 GoB Emax [95% CI].
[8] abbreviates: HEK293, read-out: hCB1 Gz Emax [95% CI].

T2 sequence (P20272 whole entry): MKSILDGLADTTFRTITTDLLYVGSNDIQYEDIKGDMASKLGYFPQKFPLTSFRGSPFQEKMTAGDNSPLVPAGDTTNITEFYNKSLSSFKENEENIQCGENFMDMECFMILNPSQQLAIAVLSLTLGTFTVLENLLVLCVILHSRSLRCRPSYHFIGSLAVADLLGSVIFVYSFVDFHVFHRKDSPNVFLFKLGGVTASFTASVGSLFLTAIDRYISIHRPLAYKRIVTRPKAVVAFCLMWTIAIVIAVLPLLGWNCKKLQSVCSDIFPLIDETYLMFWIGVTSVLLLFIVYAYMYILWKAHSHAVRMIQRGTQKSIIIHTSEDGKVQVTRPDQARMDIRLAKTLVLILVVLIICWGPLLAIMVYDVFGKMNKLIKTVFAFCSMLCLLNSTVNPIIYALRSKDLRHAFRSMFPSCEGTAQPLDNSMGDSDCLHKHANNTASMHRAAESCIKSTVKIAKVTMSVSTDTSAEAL
T3 sequence (P34972 whole entry): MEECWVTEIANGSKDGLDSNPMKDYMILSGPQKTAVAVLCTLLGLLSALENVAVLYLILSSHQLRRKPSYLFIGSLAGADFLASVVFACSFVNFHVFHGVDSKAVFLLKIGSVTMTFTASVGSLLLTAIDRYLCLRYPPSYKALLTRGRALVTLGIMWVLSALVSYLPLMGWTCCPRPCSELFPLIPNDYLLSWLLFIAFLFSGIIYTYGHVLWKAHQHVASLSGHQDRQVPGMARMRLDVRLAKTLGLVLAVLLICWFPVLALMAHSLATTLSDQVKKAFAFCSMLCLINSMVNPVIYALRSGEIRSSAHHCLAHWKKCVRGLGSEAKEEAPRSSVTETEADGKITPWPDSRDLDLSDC
T1 sequence (P21554 whole entry): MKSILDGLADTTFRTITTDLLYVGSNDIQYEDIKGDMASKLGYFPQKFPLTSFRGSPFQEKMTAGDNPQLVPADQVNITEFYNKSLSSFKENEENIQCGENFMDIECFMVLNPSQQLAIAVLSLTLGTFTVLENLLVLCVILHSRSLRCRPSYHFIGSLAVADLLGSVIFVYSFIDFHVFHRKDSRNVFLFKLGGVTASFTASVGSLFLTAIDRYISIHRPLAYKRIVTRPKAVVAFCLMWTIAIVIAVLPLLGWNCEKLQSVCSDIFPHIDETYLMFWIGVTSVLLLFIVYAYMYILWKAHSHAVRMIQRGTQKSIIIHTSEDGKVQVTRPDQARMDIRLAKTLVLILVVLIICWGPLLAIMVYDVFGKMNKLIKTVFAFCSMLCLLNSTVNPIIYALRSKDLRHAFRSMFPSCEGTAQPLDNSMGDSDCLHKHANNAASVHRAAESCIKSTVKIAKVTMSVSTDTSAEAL

Consider `COC(=O)C(NC(=O)c1cc(C)n(-c2cccc(F)c2)n1)c1cccs1` (stereo not shown) [‘51486], for which, on hCB1 [1], the “functional efficacy (decrease in forskolin stimulated cAMP)” value is reported as “modest agonism”. Moreover, the LE on CB1 (ligand efficiency) is on record as 0.32. This compound also returned an LLE at CB1 (lipophilic ligand efficiency) of 3.1. The affinity at CB1 corresponds to a Ki of 731 nM. Also, the Emax on hCB1 [2] (setting [6]) came to 73%; on hCB1 [2] (setting [7]), 74%; on hCB1 [2] (setting [8]), 130%. Besides, the EC50 on hCB1 [2] (hCB1 Gi1 EC50 [95% CI], Gi1 sensor) is 849 nM; at hCB1 [2] (hCB1 GoB EC50 [95% CI]) it was 711 nM; on hCB1 [2] (hCB1 GoB pEC50 [95% CI]), 631 nM; at hCB1 [2] (hCB1 Gz EC50 [95% CI]) it was 1120 nM.

For the compound `O=C(CCCN1CCC(O)(c2ccc(Cl)cc2)CC1)c1ccc(F)cc1` [haloperidol, reference compound], in the data set on C56BL/6 mice, the catalepsy result was “dramatic catalepsy”.

As for `CCCCC/C=C\C/C=C\C/C=C\C/C=C\CCCC(=O)OC(CO)CO` [2-AG, reference compound], on hCB2 [3] (Gi1 sensor), the “hCB2 Gi1 pEC50 [95% CI]” value was 6.66 [6.6 – 6.7]. Moreover, the “hCB2 Gi2 pEC50 [95% CI]” value on hCB2 [3] (Gi2 sensor) was 7.0 [6.9 – 7.2]. Also, the “hCB2 Gi2 Emax [95% CI]” value on hCB2 [3] (Gi2 sensor, normalized to CP-55,940) was 78 [74 – 84]. Further, on hCB2 [3] (GoB sensor), the “hCB2 GoB pEC50 [95% CI]” value is 6.4 [6.3 – 6.5]. Also, the “hCB2 GoB Emax [95% CI]” value on hCB2 [3] (GoB sensor, normalized to CP-55,940) is 101 [98 – 104]. Also, at hCB2 [3] (Gz sensor), the “hCB2 Gz pEC50 [95% CI]” value is 5.7 [4.1 – 6.0]. On hCB2 [3] (Gz sensor, normalized to CP-55,940), the “hCB2 Gz Emax [95% CI]” value is 96 [76 – 233]. For the same compound, the EC50 worked out at 1850 nM on hCB2 [3] (read-out: hCB2 Barr2 + GRK2 EC50 [95% CI], ßarrestin-2 sensor with GRK2); 217 nM on hCB2 [3] (read-out: hCB2 Gi1 EC50 [95% CI], Gi1 sensor); 96 nM at hCB2 [3] (read-out: hCB2 Gi2 EC50 [95% CI], Gi2 sensor); 394 nM at hCB2 [3] (read-out: hCB2 GoB EC50 [95% CI], GoB sensor); 2120 nM on hCB2 [3] (read-out: hCB2 Gz EC50 [95% CI], Gz sensor). Further, at hCB2 [3] (ßarrestin-2 sensor with GRK2), the “hCB2 Barr2 + GRK2 pEC50 [95% CI]” value is 5.7 [5.4 – 6.0]. On hCB2 [3] (ßarrestin-2 sensor with GRK2, normalized to CP-55,940), the “hCB2 Barr2 + GRK2 Emax [95% CI]” value was 118 [104 – 140].

Regarding `COC(=O)[C@@H]1[C@@H]2CCC[C@@H]2CN1C(=O)c1cc(C)n(-c2cccc(Cl)c2)n1` [‘10010], the Emax on CB1 (maximal radioligand displacement, read-out: rCB1 binding Emax [SEM]) was 101%; at hCB1 [2] (setting [6]) it was 74%; at hCB1 [2] (setting [7]) it was 71%; on hCB1 [2] (setting [8]), 144%; on hCB2 [5] (HTLA, read-out: hCB2 Tango ß-arrestin recruitment Emax [95% CI]), 18%. At CB1, this compound displayed a Ki of 1200 nM. Moreover, the “% [3H]-CP-55,940 displacement (mean) from single point screen” value on CB1 (screens at 10 μM (white cells), 1 μM (orange) or 300 nM (green), cell colours not visible) is given as 33.86%. Moreover, the EC50 is over 10000 nM at hCB1 [4]; 814 nM at hCB1 [2] (hCB1 Gi1 EC50 [95% CI]); 801 nM on hCB1 [2] (hCB1 GoB EC50 [95% CI]); 794 nM on hCB1 [2] (hCB1 GoB pEC50 [95% CI]); 1400 nM on hCB1 [2] (hCB1 Gz EC50 [95% CI]); 556 nM at hCB2 [5].

Regarding `Cn1nc(-c2nnc(C(C)(C)Oc3ccc(Cl)cc3)o2)c2ccccc2c1=O` [‘0450], the “functional efficacy (decrease in forskolin stimulated cAMP)” value at hCB1 [1] was “modest agonism”. At CB1, this compound displayed a Ki of 691 nM. For the same compound, the Emax at hCB1 [2] (setting [6]) was 49%; at hCB1 [2] (setting [7]), 36%. The values for the EC50 at hCB1 [2] (hCB1 Gi1 EC50 [95% CI]), at hCB1 [2] (hCB1 Gi1 pEC50 [95% CI]) and on hCB1 [2] (hCB1 GoB EC50 [95% CI]) were 56300 nM, 50100 nM and 2510 nM, respectively.
